Reference: a melting point compilation (Tetko et al.)

| melting point | Structure (SMILES) |
| --- | --- |
| 134 to 136 °C | CCCCN(C)c1ccc(C(=O)O)cc1 |
| 149 to 151 °C | O=C(O)c1cn(-c2cccc(C(F)(F)F)c2)nn1 |
| 90 to 92 °C | CNC(=O)c1ccc(CN)cc1 |
| 319 to 321 °C | Nc1cc2ccccc2c(=O)[nH]1 |
| 258 to 260 °C | O=C(O)c1cncc(N2CCOCC2)c1 |
| 86 to 88 °C | O=C(CCCl)Nc1ccccc1[N+](=O)[O-] |
| 236 to 238 °C | Cn1cc(C(=O)O)ccc1=O |
| 171 to 173 °C | O=C(O)CN1CSCC1=O |
| 179 to 181 °C | COc1ccc2[nH]c(NCc3ccccc3)nc2c1 |
| 130 to 132 °C | O=C(NC(C(=O)O)c1ccccc1)OCc1ccccc1 (stereo not given) |
| 192 to 196 °C | N=c1nc(S)ss1 |
| 102 to 104 °C | COc1cncc(CCC(=O)O)c1 |
| 151 to 153 °C | O=C(O)/C=C/c1cccc(OCc2ccccc2)c1 |
| 337 to 339 °C | Cc1cc(F)c2nc(O)cc(C(=O)O)c2c1 |
| 85 to 87 °C | O=C(O)COc1cccc(C(F)(F)F)c1 |
| 101 to 103 °C | Cn1cnc2c(Br)cccc21 |
| 217 to 219 °C | Cc1nc(S(=O)(=O)NCC(=O)O)cn1C |
| 222 to 224 °C | O=C(Nc1ccc(O)cc1)c1cccc([N+](=O)[O-])c1 |
| 49 to 51 °C | COC(=O)COc1ccc(Br)cc1 |
| 183 to 185 °C | Cc1ccc(S(=O)(=O)Nc2ccc(N)cc2)cc1 |
| 179 to 181 °C | CC(C)(C)OC(=O)Nc1cc2ccccc2cc1C(=O)O |
| 113 to 115 °C | CCOC(=O)c1ccc(-n2c(C)cc(C=O)c2C)cc1 |
| 241 to 243 °C | O=C(COc1ccccc1C(=O)O)Nc1ccc(Br)cc1 |

| melting point | Structure (SMILES) |
| --- | --- |
| 253 to 255 °C | Cc1nc(N)ccc1C=CC(=O)O |
| 216 to 218 °C | CCCCn1c(=O)[nH]c(=O)c2cc(C(=O)O)cnc21 |
| 86 to 88 °C | N#Cc1ccc(CSCC(=O)O)cc1 |
| 223 to 227 °C | Nc1nnc(-c2ccc(F)cc2)[nH]1 |
| 229 to 231 °C | Cc1c(C(=O)O)oc2c(Cl)cccc12 |
| 132 to 136 °C | O=Cc1ccc(-c2ccc([N+](=O)[O-])cc2Br)o1 |
| 127 to 129 °C | Cc1ccc2c(CCC(=O)O)c[nH]c2c1 |
| 91 to 93 °C | O=C1CCSc2c(Cl)cccc21 |
| 119 to 121 °C | Nc1nc2ccc(Br)cc2s1 |
| 246 to 248 °C | NC(=O)c1cc(N)cc(C(N)=O)c1 |
| 75 to 77 °C | C#CCOc1ccc(C=O)cc1 |
| 60 to 62 °C | O=C(OCc1ccccc1)N1CCCC1CS(=O)(=O)Cl (stereo not given) |
| 159 to 161 °C | Nc1cccc(NC(=O)NCc2ccncc2)c1 |
| 70 to 72 °C | COc1ccnc(CO)c1 |
| 99 to 101 °C | CC(C)(C)OC(=O)NC(CCS(C)(=O)=O)C(=O)O (stereo not given) |
| 151 to 153 °C | COCCN1C(=O)c2ccc(C(=O)O)cc2S1(=O)=O |
| 91 to 93 °C | N#CCC(=O)NCCc1ccccc1 |
| 237 to 239 °C | NS(=O)(=O)c1cc(Cl)c(Cl)c(C(=O)O)c1 |
| 66 to 68 °C | CC(C)c1ccc(SCC(=O)O)cc1 |
| 94 to 96 °C | O=C(O)C1CCN(c2ncccn2)CC1 |
| 78 to 80 °C | CN(C)C(=O)Sc1ccc(CCl)cc1 |
| 103 to 105 °C | CNC(=O)C(Br)Cc1ccccc1 (stereo not given) |
| 181 to 183 °C | CCOC(=O)c1cnn(-c2ncccn2)c1N |

| melting point | Structure (SMILES) |
| --- | --- |
| 180 to 182 °C | Cc1[nH]n(-c2ccc(C#N)cc2)c(=N)c1C |
| 156 to 158 °C | Cc1ccccc1Cc1nn[nH]n1 |
| 154 to 156 °C | CS(=O)(=O)c1ccccc1CC(=O)O |
| 139 to 141 °C | COCCN1C(=O)C(=O)c2ccc(Br)cc21 |
| 276 to 278 °C | Cc1nc(C)c(C)c(O)n1 |
| 88 to 90 °C | CC(C)c1nccn1Cc1cccc(N)c1 |
| 109 to 111 °C | CC(C)(C)OC(=O)N1CCNC(C#N)C1 (stereo not given) |
| 129 to 131 °C | NS(=O)(=O)C1CCOCC1 |
| 106 to 108 °C | Nc1ncc(Cc2ccccc2)s1 |
| 169 to 171 °C | CC(C)(C)OC(=O)NC12CCC(C(=O)O)(C1)C2 |
| 161 to 163 °C | Ic1ccc(OCc2ccc3ncccc3c2)cc1 |
| 77 to 79 °C | Cc1nn(-c2ccccc2)c(C)c1CN |
| 104 to 106 °C | NNC(=S)NCC1CCC1 |
| 103 to 105 °C | COc1ccc2nc(Cl)ccc2c1 |
| 145 to 147 °C | Cc1cc(=O)c(C(=O)O)nn1-c1ccccc1C(F)(F)F |
| 211 to 213 °C | O=C(O)c1ccccc1NS(=O)(=O)c1ccc(Cl)c([N+](=O)[O-])c1 |
| 109 to 111 °C | O=C(O)CSCc1cccnc1 |
| 134 to 136 °C | NCc1nc(-c2ccsc2)no1 |
| 115 to 117 °C | CCOc1cc(C=O)ccc1OCc1c(Cl)cccc1Cl |
| 116 to 118 °C | O=C(O)CNC(=O)CC1CCCCC1 |
| 144 to 146 °C | Nc1ccccc1C(=O)Nc1ccncc1 |
| 192 to 194 °C | O=C1C=C(O)C(=O)c2ccccc21 |
| 99 to 101 °C | COC(=O)N(C)c1ccc(O)cc1 |

| melting point | Structure (SMILES) |
| --- | --- |
| 259 to 261 °C | O=C1c2ccc([N+](=O)[O-])cc2C(=O)N1c1ccncc1 |
| 213 to 215 °C | O=C(O)c1ccccc1SCc1ccsc1 |
| 238 to 240 °C | COc1ccc(NS(=O)(=O)c2ccc(C=CC(=O)O)cc2)cc1 |
| 223 to 225 °C | COc1ccc(CCn2c(S)nc3ccccc3c2=O)cc1OC |
| 152 to 154 °C | Oc1ccnc(C2CC2)n1 |
| 81 to 83 °C | CCN(CC)C(=O)c1cccc(N)c1 |
| 104 to 106 °C | CSCCC(NS(=O)(=O)c1ccccc1F)C(=O)O (stereo not given) |
| 204 to 206 °C | Cc1nn(-c2ccccc2Cl)c(C(F)F)c1C(=O)O |
| 71 to 73 °C | ClCc1ccc(-c2ccccc2)cc1 |
| 123 to 125 °C | Cc1ccc(S(=O)(=O)NCC(=O)O)cc1C |
| 58 to 60 °C | CCCOc1ccc(C=O)c(OCCC)c1 |
| 182 to 184 °C | NC(=O)NCc1cccnc1 |
| 183 to 185 °C | CCCCc1ccc(C(=O)Nc2sccc2C(=O)O)cc1 |
| 108 to 110 °C | Cc1nc(-c2cccc([N+](=O)[O-])c2)no1 |
| 89 to 91 °C | CC1(O)CN(C(=O)OC(C)(C)C)C1 |
| 104 to 106 °C | Nc1cccc(NC(=O)CCn2cccn2)c1 |
| 56 to 58 °C | CC(C)(C)n1cc(N)cn1 |
| 117 to 119 °C | OC1CCC(c2ccccc2)CC1 (stereo not given) |
| 107 to 109 °C | CCCc1onc(C)c1C(=O)O |
| 103 to 105 °C | CSC(=CC(=O)c1cccnc1)SC |
| 98 to 100 °C | CCOC(=O)c1nc(NCc2ccccc2)sc1C |
| 204 to 206 °C | Cn1cc(C(=O)O)c(-c2ccccc2)n1 |
| 169 to 171 °C | O=C(O)CNC(=O)c1cccs1 |

| melting point | Structure (SMILES) |
| --- | --- |
| 149 to 151 °C | CC1(CCCC(=O)O)NC(=O)NC1=O (stereo not given) |
| 149 to 151 °C | CC(C)(C)OC(=O)NC(Cc1ccccc1)C(O)C(F)(F)F (stereo not given) |
| 139 to 141 °C | CC(=O)NCc1ccc(C(=O)CCl)cc1 |
| 246 to 248 °C | O=C(O)c1cn(-c2ccccc2)nc1-c1ccc(Cl)cc1 |
| 149 to 151 °C | CC(=O)c1csc(C(=O)O)c1 |
| 133 to 135 °C | COc1cccc(C(=O)O)n1 |
| 119 to 121 °C | CCOc1ccccc1C(N)(C(=O)O)C(F)(F)F (stereo not given) |
| 130 to 132 °C | CC(C)(C)OC(=O)NCCNC(=O)C1CCCNC1 (stereo not given) |
| 104 to 106 °C | COC(=O)c1nc2nc(C(C)C)cc(Cl)n2n1 |
| 69 to 71 °C | CCCCCCCC(=O)NCCCC(=O)O |
| 218 to 222 °C | CC(=O)Nc1cc(-c2csc(N)n2)ccc1O |
| 104 to 106 °C | COC(=O)c1cc(S(=O)(=O)Cl)c(F)cc1F |
| 90 to 92 °C | COc1ccc(C(CN)NC(=O)OC(C)(C)C)cc1 (stereo not given) |
| 148 to 150 °C | O=C(O)C(c1ccccc1)N1CCCCC1=O (stereo not given) |
| 297 to 299 °C | O=C(O)c1ccc(S(=O)(=O)Nc2ccncc2)cc1 |
| 228 to 230 °C | O=C(O)c1ccc(Sc2ccccc2)c([N+](=O)[O-])c1 |
| 136 to 138 °C | Nc1ccc(S(=O)(=O)NCc2ccc(F)cc2)cc1 |
| 218 to 220 °C | CC(C)(C)c1n[nH]c(O)c1CCC#N |
| 177 to 179 °C | N#Cc1cnn(-c2ccc(Br)cc2)c1N |
| 92 to 94 °C | N#Cc1cc(F)c(S(=O)(=O)Cl)c(F)c1 |
| 109 to 111 °C | O=C(C1OCCc2ccccc21)N1CCCC1 (stereo not given) |
| 311 to 313 °C | O=C(O)c1cc(/C=C/c2ccc(OC(F)(F)F)cc2)nc2ccc(Br)cc12 |
| 81 to 83 °C | N#Cc1cccc(N2CCCC2=O)c1 |

| melting point | Structure (SMILES) |
| --- | --- |
| 180 to 182 °C | Cc1c(NC(=O)CSCC(=O)O)c(=O)n(-c2ccccc2)n1C |
| 88 to 90 °C | COc1ccc(-c2cc(CBr)on2)cc1 |
| 135 to 137 °C | NCc1ccc(NC(=O)c2ccc(F)cc2)cc1 |
| 130 to 132 °C | CCCCOc1ccc(C(=O)NC(C(=O)O)C(C)O)cc1 (stereo not given) |
| 55 to 57 °C | Cc1cccc(OCCCCC(=O)O)c1 |
| 227 to 229 °C | Nc1ccc(-c2nnc3n2CCCC3)cc1 |
| 141 to 143 °C | CCOC(=O)c1cnn2cc(Br)cnc12 |
| 96 to 98 °C | Cc1cc(N)n(-c2ccncc2)n1 |
| 88 to 90 °C | COc1ccc(S(=O)(=O)N(C)c2ccc(O)cc2)cc1 |
| 133 to 135 °C | O=C(c1ccccc1O)N1CCCCC1 |
| 107 to 109 °C | COc1cc(CCc2cc(N)n[nH]2)cc(OC)c1 |
| 145 to 147 °C | CC(C)C(NC(=O)c1ccc([N+](=O)[O-])cc1Cl)C(=O)O (stereo not given) |
| 127 to 129 °C | CC(=O)Nc1cc(F)ccc1-c1csc(N)n1 |
| 164 to 166 °C | CC(NC(=O)c1cc(-c2ccccc2)on1)C(=O)O (stereo not given) |
| 173 to 175 °C | CC1CC1C(=O)Nc1ccc(F)cc1C(=O)O (stereo not given) |
| 190 to 192 °C | Cc1nn(C)cc1C(=O)O |
| 178 to 180 °C | COc1ccc(C2C(C(=O)O)CCC(=O)N2c2ccc(OC)cc2)cc1 (stereo not given) |
| 85 to 87 °C | N#CCCN(C(=O)CCl)c1ccc(F)cc1 |
| 213 to 215 °C | COc1ccc(-n2c(S)nc3ccccc32)cc1 |
| 133 to 137 °C | Cc1noc(C)c1S(=O)(=O)N1CCCC1C(=O)O (stereo not given) |

| Structure (SMILES) | melting point |
| --- | --- |
| CC(C)C(C)(C#N)NC(=O)CCl (stereo not given) | 71 to 73 °C |
| NC1(c2nnn[nH]2)CCC1 | 254 to 256 °C |
| COc1ccccc1NC1=NCCCS1 | 83 to 85 °C |
| Cc1cc(C(=O)O)c(C)n1Cc1ccccc1 | 196 to 200 °C |
| CCc1c(O)nc(S)n(-c2ccccc2C)c1=O | 178 to 180 °C |
